# Assay results reported in PubChem BioAssay (NCI).
#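 These data come from cells grown in 96-well plates and exposed to compound for 48 hours at five concentrations. The concentration for 50% growth inhibition is given as GI50. At the TGI there is no net growth.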
# Key:
# Test in all cases: DTP human tumour cell line panel, 48 h
# HS 578T breast = test system: HS 578T breast
# A549 NSCLC = test system: A549 NSCLC
# RXF 393 renal = test system: RXF 393 renal
# OVCAR-3 ovarian = test system: OVCAR-3 ovarian
# A498 renal = test system: A498 renal
# HT29 colon = test system: HT29 colon
# CAKI-1 renal = test system: CAKI-1 renal
# SK-MEL-5 melanoma = test system: SK-MEL-5 melanoma
# NCI-H460 lung = test system: NCI-H460 lung
# SF-539 CNS = test system: SF-539 CNS
# DU-145 prostate = test system: DU-145 prostate
# SNB-75 CNS = test system: SNB-75 CNS
# BT-549 breast = test system: BT-549 breast
# U251 CNS = test system: U251 CNS
# SR leukemia = test system: SR leukemia
# K-562 leukemia = test system: K-562 leukemia
# UO-31 renal = test system: UO-31 renal
# TK-10 renal = test system: TK-10 renal
# RPMI-8226 leukemia = test system: RPMI-8226 leukemia
# EKVX NSCLC = test system: EKVX NSCLC
# MOLT-4 leukemia = test system: MOLT-4 leukemia
# SK-MEL-2 melanoma = test system: SK-MEL-2 melanoma
# SF-268 CNS = test system: SF-268 CNS
# SN12C renal = test system: SN12C renal
# HCT-15 colon = test system: HCT-15 colon
# MALME-3M melanoma = test system: MALME-3M melanoma
# OVCAR-5 ovarian = test system: OVCAR-5 ovarian
# NCI/ADR-RES ovarian = test system: NCI/ADR-RES ovarian
# 786-0 renal = test system: 786-0 renal
# SW-620 colon = test system: SW-620 colon
# KM12 colon = test system: KM12 colon
# OVCAR-8 ovarian = test system: OVCAR-8 ovarian
# SF-295 CNS = test system: SF-295 CNS
# M14 melanoma = test system: M14 melanoma
# IGROV1 ovarian = test system: IGROV1 ovarian
# MDA-MB-435 = test system: MDA-MB-435
# HOP-92 NSCLC = test system: HOP-92 NSCLC
# HL-60(TB) leukemia = test system: HL-60(TB) leukemia
# SNB-19 CNS = test system: SNB-19 CNS
# ACHN renal = test system: ACHN renal
# LOX IMVI melanoma = test system: LOX IMVI melanoma
# SK-OV-3 ovarian = test system: SK-OV-3 ovarian
# MCF7 breast = test system: MCF7 breast
# NCI-H522 lung = test system: NCI-H522 lung
# UACC-257 melanoma = test system: UACC-257 melanoma
# NCI-H226 lung = test system: NCI-H226 lung
# HCT-116 colon = test system: HCT-116 colon
# UACC-62 melanoma = test system: UACC-62 melanoma
# OVCAR-4 ovarian = test system: OVCAR-4 ovarian
# MDA-MB-231 breast = test system: MDA-MB-231 breast
# NCI-H23 lung = test system: NCI-H23 lung
# SK-MEL-28 melanoma = test system: SK-MEL-28 melanoma
# T-47D breast = test system: T-47D breast
# PC-3 prostate = test system: PC-3 prostate
# CCRF-CEM leukemia = test system: CCRF-CEM leukemia
# HCC-2998 colon = test system: HCC-2998 colon
# HOP-62 NSCLC = test system: HOP-62 NSCLC
compound,measurement,setting,value
O=C(Nc1ccc(Cl)cc1F)c1cc(F)ccc1O,GI50,HS 578T breast,0.718 µM
same,TGI,HS 578T breast,5.3 µM
same,GI50,A549 NSCLC,2.79 µM
same,TGI,A549 NSCLC,> 45.8 µM
same,GI50,RXF 393 renal,0.864 µM
same,TGI,RXF 393 renal,4.28 µM
same,GI50,OVCAR-3 ovarian,0.528 µM
same,TGI,OVCAR-3 ovarian,10.8 µM
same,GI50,A498 renal,0.251 µM
same,TGI,A498 renal,0.98 µM
same,GI50,HT29 colon,3.24 µM
same,TGI,HT29 colon,> 34 µM
same,GI50,CAKI-1 renal,0.588 µM
same,TGI,CAKI-1 renal,4.54 µM
same,GI50,SK-MEL-5 melanoma,0.274 µM
same,TGI,SK-MEL-5 melanoma,0.847 µM
same,GI50,NCI-H460 lung,0.647 µM
same,TGI,NCI-H460 lung,13.5 µM
same,GI50,SF-539 CNS,0.845 µM
same,TGI,SF-539 CNS,7.58 µM
same,GI50,DU-145 prostate,1.24 µM
same,TGI,DU-145 prostate,> 46.3 µM
same,GI50,SNB-75 CNS,0.39 µM
same,TGI,SNB-75 CNS,6.16 µM
same,GI50,BT-549 breast,0.83 µM
same,TGI,BT-549 breast,4.02 µM
same,GI50,U251 CNS,0.832 µM
same,TGI,U251 CNS,> 38.8 µM
same,GI50,SR leukemia,0.752 µM
same,TGI,SR leukemia,> 100 µM
same,GI50,K-562 leukemia,0.609 µM
same,TGI,K-562 leukemia,> 100 µM
same,GI50,UO-31 renal,0.314 µM
same,TGI,UO-31 renal,3.38 µM
same,GI50,TK-10 renal,4.69 µM
same,TGI,TK-10 renal,23.1 µM
same,GI50,RPMI-8226 leukemia,0.449 µM
same,TGI,RPMI-8226 leukemia,3.99 µM
same,GI50,EKVX NSCLC,1.88 µM
same,TGI,EKVX NSCLC,9.97 µM
same,GI50,MOLT-4 leukemia,1.9 µM
same,TGI,MOLT-4 leukemia,4.77 µM
same,GI50,SK-MEL-2 melanoma,0.519 µM
same,TGI,SK-MEL-2 melanoma,3.12 µM
same,GI50,SF-268 CNS,0.854 µM
same,TGI,SF-268 CNS,12.1 µM
same,GI50,SN12C renal,0.643 µM
same,TGI,SN12C renal,5.64 µM
same,GI50,HCT-15 colon,1.46 µM
same,TGI,HCT-15 colon,9.62 µM
same,GI50,MALME-3M melanoma,0.41 µM
same,TGI,MALME-3M melanoma,2.27 µM
same,GI50,OVCAR-5 ovarian,3.26 µM
same,TGI,OVCAR-5 ovarian,23 µM
same,GI50,NCI/ADR-RES ovarian,1.63 µM
same,TGI,NCI/ADR-RES ovarian,7.1 µM
same,GI50,786-0 renal,2.73 µM
same,TGI,786-0 renal,9.73 µM
same,GI50,SW-620 colon,1.46 µM
same,TGI,SW-620 colon,23.6 µM
same,GI50,KM12 colon,2.03 µM
same,TGI,KM12 colon,5.56 µM
same,GI50,OVCAR-8 ovarian,2.4 µM
same,TGI,OVCAR-8 ovarian,> 70.8 µM
same,GI50,SF-295 CNS,1.8 µM
same,TGI,SF-295 CNS,3.57 µM
same,GI50,M14 melanoma,1.11 µM
same,TGI,M14 melanoma,5.44 µM
same,GI50,IGROV1 ovarian,0.597 µM
same,TGI,IGROV1 ovarian,17.2 µM
same,GI50,MDA-MB-435,0.626 µM
same,TGI,MDA-MB-435,5.51 µM
same,GI50,HOP-92 NSCLC,0.196 µM
same,TGI,HOP-92 NSCLC,0.874 µM
same,GI50,HL-60(TB) leukemia,0.622 µM
same,TGI,HL-60(TB) leukemia,3.45 µM
same,GI50,SNB-19 CNS,0.669 µM
same,TGI,SNB-19 CNS,18.6 µM
same,GI50,ACHN renal,0.83 µM
same,TGI,ACHN renal,8.27 µM
same,GI50,LOX IMVI melanoma,0.522 µM
same,TGI,LOX IMVI melanoma,5.31 µM
same,GI50,SK-OV-3 ovarian,1.25 µM
same,TGI,SK-OV-3 ovarian,10.4 µM
same,GI50,MCF7 breast,1.77 µM
same,TGI,MCF7 breast,9.28 µM
same,GI50,NCI-H522 lung,0.379 µM
same,TGI,NCI-H522 lung,9.26 µM
same,GI50,UACC-257 melanoma,0.853 µM
same,TGI,UACC-257 melanoma,7.2 µM
same,GI50,NCI-H226 lung,1.02 µM
same,TGI,NCI-H226 lung,5.49 µM
same,GI50,HCT-116 colon,0.702 µM
same,TGI,HCT-116 colon,3.51 µM
same,GI50,UACC-62 melanoma,0.289 µM
same,TGI,UACC-62 melanoma,1.15 µM
same,GI50,OVCAR-4 ovarian,0.941 µM
same,TGI,OVCAR-4 ovarian,> 29.6 µM
same,GI50,MDA-MB-231 breast,0.761 µM
same,TGI,MDA-MB-231 breast,3.81 µM
same,GI50,NCI-H23 lung,0.553 µM
same,TGI,NCI-H23 lung,3.29 µM
same,GI50,SK-MEL-28 melanoma,0.485 µM
same,TGI,SK-MEL-28 melanoma,2.63 µM
same,GI50,T-47D breast,0.904 µM
same,TGI,T-47D breast,> 23.5 µM
same,GI50,PC-3 prostate,1.49 µM
same,TGI,PC-3 prostate,6.73 µM
same,GI50,CCRF-CEM leukemia,3.16 µM
same,TGI,CCRF-CEM leukemia,> 100 µM
same,GI50,HCC-2998 colon,2.64 µM
same,TGI,HCC-2998 colon,8.1 µM
same,GI50,HOP-62 NSCLC,1.5 µM
same,TGI,HOP-62 NSCLC,19.8 µM
